Data taken from patent US6037447A, “Glycopeptide compounds” (priority 1998, dated 2000).
Values after ≈ are worked out from the molar mass of the structure shown.

Tests used:
[1] = tested on: Enterococcus faecalis 276; test: Standard broth micro-dilution MIC, Enterococcus faecalis 276; assay type: cell-based
Procedure: (§1) The minimal inhibitory concentrations (MICs) were determined using a standard broth micro-dilution assay.

[2] = tested on: vancomycin-resistant enterococci; test: In Vitro Activity Against Enterococci, vancomycin-resistant strains; assay type: cell-based; conditions: representative vancomycin-resistant enterococci (Enterococcus faecium and Enterococcus faecalis)
Procedure: as §1

[3] = tested on: Staphylococcus haemolyticus 415; test: Standard broth micro-dilution MIC, Staphylococcus haemolyticus 415; assay type: cell-based
Procedure: as §1

[4] = tested on: Enterococcus gallinarum 245; test: Standard broth micro-dilution MIC, Enterococcus gallinarum 245; assay type: cell-based
Procedure: as §1

[5] = tested on: Staphylococcus aureus SA119913; test: Standard broth micro-dilution MIC, Staphylococcus aureus SA119913; assay type: cell-based
Procedure: as §1

Escherichia coli EC14 = test: Standard broth micro-dilution MIC, Escherichia coli EC14; assay type: cell-based
Procedure: as §1

[6] = tested on: Staphylococcus aureus 447; test: Standard broth micro-dilution MIC, Staphylococcus aureus 447; assay type: cell-based
Procedure: as §1

[7] = tested on: Staphylococcus aureus SA1199; test: Standard broth micro-dilution MIC, Staphylococcus aureus SA1199; assay type: cell-based
Procedure: as §1

[8] = tested on: Streptococcus pyogenes C203; test: Standard broth micro-dilution MIC, Streptococcus pyogenes C203; assay type: cell-based
Procedure: as §1

[9] = tested on: Streptococcus pneumoniae P1; test: Standard broth micro-dilution MIC, Streptococcus pneumoniae P1; assay type: cell-based
Procedure: as §1

[10] = tested on: vancomycin-sensitive enterococci; test: In Vitro Activity Against Enterococci, vancomycin-sensitive strains; assay type: cell-based, Enterococcus faecium and Enterococcus faecalis; conditions: for mean geometric MIC, Vancomycin Sensitive Strains: representative vancomycin-sensitive enterococci (Enterococcus faecium and Enterococcus faecalis)
Procedure: as §1

[11] = tested on: Staphylococcus aureus 489; test: Standard broth micro-dilution MIC, Staphylococcus aureus 489; assay type: cell-based
Procedure: as §1

[12] = tested on: Staphylococcus epidermidis 270; test: Standard broth micro-dilution MIC, Staphylococcus epidermidis 270; assay type: cell-based
Procedure: as §1

[13] = tested on: Enterococcus faecium 180-1; test: Standard broth micro-dilution MIC, Enterococcus faecium 180-1; assay type: cell-based
Procedure: as §1

[14] = tested on: Staphylococcus aureus X400; test: Standard broth micro-dilution MIC, Staphylococcus aureus X400; assay type: cell-based
Procedure: as §1

[15] = tested on: Staphylococcus aureus 491; test: Standard broth micro-dilution MIC, Staphylococcus aureus 491; assay type: cell-based
Procedure: as §1

[16] = tested on: Staphylococcus aureus SA1199A; test: Standard broth micro-dilution MIC, Staphylococcus aureus SA1199A; assay type: cell-based
Procedure: as §1

[17] = tested on: Staphylococcus haemolyticus 105; test: Standard broth micro-dilution MIC, Staphylococcus haemolyticus 105; assay type: cell-based
Procedure: as §1

[18] = tested on: Staphylococcus aureus X778; test: Standard broth micro-dilution MIC, Staphylococcus aureus X778; assay type: cell-based
Procedure: as §1

[19] = tested on: Enterococcus faecalis 2041; test: Standard broth micro-dilution MIC, Enterococcus faecalis 2041; assay type: cell-based
Procedure: as §1

Enterococcus faecium 180 = test: Standard broth micro-dilution MIC, Enterococcus faecium 180; assay type: cell-based
Procedure: as §1

[20] = tested on: Staphylococcus aureus S13E; assay type: cell-based
Procedure: as §1

[21] = tested on: Staphylococcus aureus 446; test: Standard broth micro-dilution MIC, Staphylococcus aureus 446; assay type: cell-based
Procedure: as §1

| Compound | MIC [1] [µg/mL] | mean geometric MIC, Vancomycin Resistant Strains [2] [µg/mL] | MIC [3] [µg/mL] | MIC [4] [µg/mL] | MIC [5] [µg/mL] | MIC [6] [µg/mL] | MIC [7] [µg/mL] | MIC [8] [µg/mL] | MIC [9] [µg/mL] | mean geometric MIC, Vancomycin Sensitive Strains [10] [µg/mL] | MIC [11] [µg/mL] | MIC [12] [µg/mL] | MIC [15] [µg/mL] | MIC [16] [µg/mL] | MIC [17] [µg/mL] | MIC [18] [µg/mL] | MIC [19] [µg/mL] | MIC (Enterococcus faecium 180) [µg/mL] | MIC [20] [µg/mL] | MIC [21] [µg/mL] | other results |
| --- | --- | --- | --- | --- | --- | --- | --- | --- | --- | --- | --- | --- | --- | --- | --- | --- | --- | --- | --- | --- | --- |
| N^4 -(4-(3-(p-formylphenoxy)-n-propyloxy)benzyl)A82846B [Compound 46] | 1 | 4.8 | 4 | 4 | 1 | 2 | 1 | ≤ 0.06 | ≤ 0.06 | 0.17 | 0.5 | 2 | 0.5 | 0.125 | 2 | 0.5 | ≤ 0.06 | 0.5 | 0.5 | 1 | MIC (Escherichia coli EC14): > 64 µg/mL; MIC [13]: ≤ 0.06 µg/mL; MIC [14]: 1 µg/mL |
| N^4 -(4-(8-(p-formylphenoxy)-n-octyloxy)benzyl)vancomycin [Compound 40] | 0.25 | 11.3 | 4 | 1 | 1 | 0.25 | 0.25 | 0.06 | 0.06 | 0.19 | – | 0.25 | ≤ 0.06 | ≤ 0.06 | 1 | ≤ 0.06 | 0.125 | 1 | 0.25 | 0.5 | MIC (Escherichia coli EC14): > 64 µg/mL; MIC [13]: ≤ 0.06 µg/mL |
| N^4 -(4-(3-(3-(3-(p-formylphenoxy)-n-propoxy)-5-phenylphenoxy)-n-propoxy)benzyl)vancomycin [Compound 45] | 0.25 | 2.8 | 2 | 0.5 | 0.5 | 1 | 0.5 | 0.06 | 0.06 | 0.33 | 2 | 1 | 0.5 | ≤ 0.06 | 0.5 | 0.5 | 0.125 | 0.5 | 0.5 | 1 | MIC (Escherichia coli EC14): > 64 µg/mL; MIC [14]: 0.5 µg/mL |
| CN[C@H](CC(C)C)C(=O)N[C@H]1C(=O)N[C@@H](CC(N)=O)C(=O)N[C@H]2C(=O)N[C@H]3C(=O)N[C@H](C(=O)N[C@H](C(=O)O)c4cc(O)cc(O)c4-c4cc3ccc4O)[C@H](O[C@H]3C[C@](C)(N)[C@@H](O)[C@H](C)O3)c3ccc(c(Cl)c3)Oc3cc2cc(c3O[C@@H]2O[C@H](CO)[C@@H](O)[C@H](O)[C@H]2O[C@H]2C[C@](C)(N)[C@@H](O)[C@H](C)O2)Oc2ccc(cc2Cl)[C@H]1O [Compound A82846B, A82846B, reference compound] | – | 29 | – | – | – | – | – | – | – | 0.22 | ≤ 0.06 | – | – | ≤ 0.06 | – | – | – | 8 (≈ 5.02 µM) | – | – | – |
| 1,3-phenylenebis[oxy-1,3-n-propylene-oxy-4,1-phenylene)methylene]bis-[A82846B,(3-dimethylaminopropyl)-amide] [Compound 71] | 1 | 2.4 | 2 | 0.5 | 2 | 4 | 4 | 0.5 | 0.5 | 0.38 | 2 | 1 | 2 | 2 | 2 | 2 | 0.5 | 2 | 2 | 4 | MIC [13]: 0.5 µg/mL; MIC [14]: 4 µg/mL |
| N^4 -(4-(12-(p-formylphenoxy)-n-dodecyloxy)benzyl)vancomycin [Compound 42] | 4 | 4.5 | 8 | 1 | 4 | 4 | 2 | 0.25 | 1 | 1.1 | 2 | 4 | 2 | 1 | 2 | 1 | 2 | 0.5 | 4 | 2 | MIC (Escherichia coli EC14): > 64 µg/mL; MIC [13]: 1 µg/mL; MIC [14]: 2 µg/mL |
| 1,3-phenylene-bis-[(oxy-1,3-n-propyleneoxy-4,1-phenylene)]-methylene]-bis-[vancomycin] [Compound 12] | 1 | 4.0 | 4 | 0.06 | 4 | 8 | 4 | 0.06 | 0.06 | 0.66 | 2 | 4 | 2 | 1 | 4 | 2 | 0.25 | ≤ 0.06 | 4 | 8 | MIC [14]: 2 µg/mL |
| CN[C@H](CC(C)C)C(=O)N[C@H]1C(=O)N[C@@H](CC(N)=O)C(=O)N[C@H]2C(=O)N[C@H]3C(=O)N[C@H](C(=O)N[C@H](C(=O)O)c4cc(O)cc(O)c4-c4cc3ccc4O)[C@H](O)c3ccc(c(Cl)c3)Oc3cc2cc(c3O[C@@H]2O[C@H](CO)[C@@H](O)[C@H](O)[C@H]2O[C@H]2C[C@](C)(N)[C@H](O)[C@H](C)O2)Oc2ccc(cc2Cl)[C@H]1O [Vancomycin, reference compound] | 1 (≈ 0.69 µM) | – | – | – | – | – | – | – | – | – | – | – | – | – | – | – | 2 (≈ 1.38 µM) | > 64 | – | – | MIC ([10]; read-out: mean geometric MIC, Vancomycin Sensitive Strains): 3.9 µg/mL (≈ 2.69 µM) |
| N^4 -(4(3-(3-(3-(p-formylphenoxy)-n-propyloxy)phenoxy)-n-propyloxy)-benzyl)vancomycin [Compound 52] | – | 4.8 | – | – | – | – | – | – | – | 0.093 | – | – | – | – | – | – | – | – | – | – | – |
| N^4 -(4-(3-(p-formylphenoxy)-n-propyloxy)benzyl)vancomycin [Compound 34] | ≤ 0.06 | 53 | 2 | 1 | ≤ 0.06 | ≤ 0.06 | ≤ 0.06 | 0.06 | 0.06 | 0.87 | ≤ 0.06 | 0.25 | ≤ 0.06 | ≤ 0.06 | 0.5 | ≤ 0.06 | ≤ 0.06 | 0.5 | ≤ 0.06 | ≤ 0.06 | MIC [13]: ≤ 0.06 µg/mL; MIC [14]: ≤ 0.06 µg/mL |
| 5-n-pentyl-1,3-phenylene-bis[(oxy-1,3-n-propyleneoxy-4,1-phenylene)methylene]-bis-[vancomycin] [Compound 61] | 2 | 2 | 8 | 1 | 16 | 16 | 8 | 1 | 2 | 1.2 | 4 | 4 | 2 | 1 | 1 | 4 | 2 | 1 | 16 | 8 | MIC [13]: 0.5 µg/mL; MIC [14]: 8 µg/mL |
